These results are taken from publication PMC11858513, “Antibiofilm Activities of Tritrpticin Analogs Against Pathogenic Pseudomonas aeruginosa PA01 Strains” (Molecules, 2025).

≈ marks a conversion by molar mass, not a printed value. Like-named read-outs stand apart in the source and are kept apart here. Residues, ends and D or L forms follow the SMILES beside them.

For experiment [1], the system named is P. aeruginosa PAO1 GFP. Nature of the experiment: MIC against planktonic cells, absorbance at 600 nm. The note with it: Table 2, BM2 medium, absorbance 600 nm, mean of three biological replicates. It counts as cell-based, Pseudomonas aeruginosa. On the procedure: (§1) Figure 1 The MIC (A), MBIC (B) and MBEC (C) values for the tritrpticin analog peptides were assessed against Pa PAO1 GFP. The MIC values were determined by measuring the absorbance of bacterial cells at 600 nm. The MBIC and MBEC values were determined by recording the fluorescence at 480 nm and 530 nm from the biofilms of GFP-expressing PAO1. Three biological replicates were run for each test sample, and the mean was calculated for the recorded absorption or fluorescence values. In the graphs, the error bars represent the standard deviation (±SD).
(§2) Figure 2 The MIC (A), MBIC (B) and MBEC (C) values for the tritrpticin-Lys derivative peptides were assessed against Pa PAO1 GFP. The MIC values were determined by measuring the absorbance of bacterial cells at 600 nm. The MBIC and MBEC values were determined by recording the fluorescence at 480 nm and 530 nm from the biofilms of GFP-expressing PAO1. Three replicates were run for each sample, the values were averaged and the error bars represent the standard deviation (±SD).
(§3) The methods to determine the MIC, MBIC and MBEC have been described in detail in our previous publication. The green fluorescent protein (GFP)-producing P. aeruginosa and S. aureus strains that were used in this work were also described in the earlier publication. Fluorescence detection was used as the main method to estimate the number of cells entrapped in the biofilm matrix. The methodology used for evaluation of the antibiofilm properties against an original Pseudomonas PA01 strain by crystal violet dye staining and the use of the Calgary biofilm device has been described elsewhere. The regular PA01 strain was provided by Dr. J. Harrison, Calgary. All measurements were carried out on an Eppendorf AF2200 plate reader. Every 96-well plate included controls for bacterial cell growth without peptide treatment and media alone. All measurements were carried out in triplicate, and the values in the figures represent the average and the error bars are standard deviation.

Experiment [2] deals with P. aeruginosa PAO1 GFP. Nature of the experiment: MBIC, prevention of biofilm formation, GFP fluorescence method. Format: cell-based, Pseudomonas aeruginosa. Conditions: Table 2, BM2 medium, mean of three biological replicates. The protocol: as §1, §2, §3
Experiment [3] deals with P. aeruginosa PAO1 GFP. Nature of the experiment: MBEC, biofilm eradication, GFP fluorescence method. The note with it: Table 2, BM2 medium, mean of three biological replicates. It counts as cell-based, Pseudomonas aeruginosa. On the procedure:
as §1, §2, §3

The subject of experiment [4] is S. aureus GFP. Nature of the experiment: MIC against planktonic cells, absorbance at 600 nm. Format: cell-based, Staphylococcus aureus. Conditions: Table 4; Sa GFP, 10% TSB and 0.1% glucose; absorbance 600 nm; mean of three biological replicates. On the procedure:
(§4) Figure 3 The MIC (A), MBIC (B) and MBEC (C) values for the tritrpticin analog peptides were assessed against Sa GFP. The MIC values were determined by measuring the absorbance of bacterial cells at 600 nm. The MBIC and MBEC values were determined by recording the fluorescence at 480 nm and 530 nm from the biofilms of GFP-expressing Sa. Three biological replicates were run for each test sample, and the mean was calculated for the recorded absorption or fluorescence values. In the graphs, the error bars represent the standard deviation (±SD).
as §3

The subject of experiment [5] is S. aureus GFP. The experiment in a line: MBIC, GFP fluorescence method. Format: cell-based, Staphylococcus aureus. The note with it: Table 4, Sa GFP, 10% TSB and 0.1% glucose, mean of three biological replicates. The protocol:
as §4, §3

In experiment [6] the test system is S. aureus GFP. The experiment in a line: MBEC, GFP fluorescence method. Format: cell-based, Staphylococcus aureus. Conditions: Table 4, Sa GFP, 10% TSB and 0.1% glucose, mean of three biological replicates. The protocol:
as §4, §3

Experiment [7] relates to S. aureus GFP. Format: cell-based, Staphylococcus aureus. Conditions: Table 4; Sa GFP; lowest concentration of peptide with no bacterial growth seen on the spot agar plate.
Source text: as §3

Experiment [8] concerns P. aeruginosa PAO1. It counts as cell-based, Pseudomonas aeruginosa. Conditions: Table 5; regular PAO1 (no GFP), 1x BM2; absorbance 600 nm; mean of three biological replicates. On the procedure:
(§5) Figure 4 The MIC (A), MBIC (B) and MBRC (C) values for the peptides were assessed against P. aeruginosa PAO1 in the presence of 1× BM2. The inhibition of planktonic cells, the inhibition of biofilm cells and the reduction in biofilm cells were determined for the peptides by recording of the planktonic cells at 600 nm and quantification of biofilms formed by Pa PAO1 using crystal violet at 595 nm, respectively. Three biological replicates were run for each test sample, and the mean was calculated for the recorded absorption values. Data points with error bars indicate the standard deviation (±SD).
(§6) Figure 6 The MIC (A), MBIC (B) and MBEC (C) values for the tritrpticin-Lys derivatives against P. aeruginosa PAO1 were assessed by the crystal violet (CV) assay for the measurement of inhibition of biofilm formation and eradication of biofilm cells, respectively. The biofilm cells were rinsed, stained with 0.1% crystal violet for 15 min and then rinsed again. The CV was released from biofilm cells by the addition of 95% ethanol and quantified by reading on a spectrometer at 595 nm. Three replicates were run for each sample, the values were averaged and the error bars represent the standard deviation (±SD).
as §3

The test system of experiment [9] is P. aeruginosa PAO1. Format: cell-based. The protocol:
(§7) We note the close agreement with the MBIC and MBEC values determined by the fluorescence and CV methods, similar to what we found in our previous work for an S. aureus MRSA strain [23]. We also re-evaluated the MBEC values that are measured using the Calgary biofilm device (CBD), where biofilms form on pegs, rather than at the bottom of the 96-well plates. […] In particular, we find that the single Pro9Ala Tritrp-P9A-substituted version has better MIC, MBIC and MBEC activities than the parent peptide as well as the Tritrp-P59A analog with both prolines substituted to Ala.
as §5, §6, §3

For experiment [10], the system named is P. aeruginosa PAO1. It counts as cell-based, Pseudomonas aeruginosa. Conditions: Table 5; PAO1, 1x BM2; biofilms on pegs, cells plated and counted; three biological replicates. The protocol:
as §7
Figure 5 The MBEC values for the peptides were assessed against P. aeruginosa PAO1 in the presence of 1× BM2 medium. The eradication of biofilm cells was determined for the peptides using the counting of biofilm cells formed by Pa PAO1. Three biological replicates were run for each test sample, and the mean was calculated for counted cell values. Data points with error bars indicate the standard deviation (±SD).
as §3

Setting [11] is: Table 5, PAO1, 1x BM2, crystal violet at 595 nm, mean of three biological replicates.
Where [12] appears, read: Table 5, minimum biofilm reduction concentration, PAO1, 1x BM2, crystal violet at 595 nm, mean of three biological replicates.

With `CC(C)[C@H](NC(=O)[C@@H]1CCCN1C(=O)[C@@H](N)Cc1ccccc1)C(=O)N[C@H](C(=O)N[C@@H](Cc1c[nH]c2ccccc12)C(=O)N[C@@H](CCCCN)C(=O)N[C@@H](Cc1c[nH]c2ccccc12)C(=O)N[C@@H](Cc1c[nH]c2ccccc12)C(=O)N[C@@H](CCCCN)C(=O)N[C@@H](Cc1c[nH]c2ccccc12)C(=O)N[C@@H](Cc1c[nH]c2ccccc12)C(=O)N[C@@H](CCCCN)C(=O)NCC(N)=O)[C@@H](C)O` [PuroA-Lys, reference compound] (H-FPVTWKWWKWWKG-NH2), in the experiment on P. aeruginosa PAO1 GFP [1], the “MIC at 600 nm LD50” value was 4 µM (≈ 7.34 µg/mL) and the “MIC at 600 nm LD90” value came to 8 µM (≈ 14.7 µg/mL). Further, in the experiment with P. aeruginosa PAO1 GFP [2], the “MBIC at 488 and 530 nm LD50” value worked out at 4 µmol/L; the “MBIC at 488 and 530 nm LD90” value is 8 µmol/L. In the experiment on P. aeruginosa PAO1 GFP [3], the “MBEC at 488 and 530 nm LD50” value turned out to be 64 µmol/L; the “MBEC at 488 and 530 nm LD90” value was 64 µmol/L. Also, in the experiment on S. aureus GFP [4], the “MIC at 600 nm LD50” value was 2 µM (≈ 3.67 µg/mL) and the “MIC at 600 nm LD90” value was found to be 4 µM (≈ 7.34 µg/mL). For the same compound, in the experiment with S. aureus GFP [5], the “MBIC at 488 and 530 nm LD50” value came out at 2 µmol/L; the “MBIC at 488 and 530 nm LD90” value worked out at 4 µmol/L. In the experiment with S. aureus GFP [6], the “MBEC at 488 and 530 nm LD50” value came out at 8 µmol/L; the “MBEC at 488 and 530 nm LD90” value came out at 8 µmol/L. For the same compound, the “MBC Agar Plate” value with S. aureus GFP [7] was 8 µM (≈ 14.7 µg/mL). In the experiment on P. aeruginosa PAO1 [8], the minimum inhibitory concentration (MIC) at 600 nm LD50 is 8 µM (≈ 14.7 µg/mL) and the “MIC at 600 nm LD90” value turned out to be 16 µM (≈ 29.3 µg/mL). In the experiment with P. aeruginosa PAO1 [9] (setting [11]), the “MBIC (CV at 595 nm) LD50” value turned out to be 8 µmol/L and the “MBIC (CV at 595 nm) LD90” value amounted to 16 µmol/L. In addition, in the experiment with P. aeruginosa PAO1 [9] (setting [12]), the “MBRC (CV at 595 nm) LD50” value was 32 µmol/L and the “MBRC (CV at 595 nm) LD90” value was determined as 32 µmol/L. In the experiment on P. aeruginosa PAO1 [10], the “MBEC from Calgary Biofilm Device (CBD) LD50” value is 32 µmol/L and the “MBEC from Calgary Biofilm Device (CBD) LD90” value amounted to 64 µmol/L.
Consider `CC(C)C[C@H](NC(=O)[C@H](Cc1ccccc1)NC(=O)[C@@H]1CCCN1C(=O)[C@H](Cc1c[nH]c2ccccc12)NC(=O)[C@H](Cc1c[nH]c2ccccc12)NC(=O)[C@H](Cc1c[nH]c2ccccc12)NC(=O)[C@@H]1CCCN1C(=O)[C@H](Cc1ccccc1)NC(=O)[C@H](CCCNC(=N)N)NC(=O)[C@H](CCCNC(=N)N)NC(=O)[C@@H](N)C(C)C)C(=O)N[C@@H](CCCNC(=N)N)C(=O)N[C@@H](CCCNC(=N)N)C(N)=O` [Tritrp-Arg], for which, in the experiment on P. aeruginosa PAO1 GFP [1], the minimum inhibitory concentration (MIC) at 600 nm LD50 was 4 µM (≈ 7.61 µg/mL) and the “MIC at 600 nm LD90” value came out at 8 µM (≈ 15.2 µg/mL). In the experiment with P. aeruginosa PAO1 GFP [2], the “MBIC at 488 and 530 nm LD50” value was found to be 2 µmol/L; the “MBIC at 488 and 530 nm LD90” value is 8 µmol/L. Further, in the experiment with P. aeruginosa PAO1 GFP [3], the “MBEC at 488 and 530 nm LD50” value was found to be 8 µmol/L; the “MBEC at 488 and 530 nm LD90” value was 16 µmol/L. In the experiment on S. aureus GFP [4], the minimum inhibitory concentration (MIC) at 600 nm LD50 was found to be 0.5 µM (≈ 0.951 µg/mL) and the minimum inhibitory concentration (MIC) at 600 nm LD90 is 2 µM (≈ 3.8 µg/mL). In the experiment on S. aureus GFP [5], the “MBIC at 488 and 530 nm LD50” value amounted to 1 µmol/L; the “MBIC at 488 and 530 nm LD90” value was determined as 2 µmol/L. Besides, in the experiment on S. aureus GFP [6], the “MBEC at 488 and 530 nm LD50” value came to 1 µmol/L; the “MBEC at 488 and 530 nm LD90” value turned out to be 2 µmol/L. Besides, in the experiment with S. aureus GFP [7], the “MBC Agar Plate” value came out at 2 µM (≈ 3.8 µg/mL). For the same compound, in the experiment on P. aeruginosa PAO1 [8], the “MIC at 600 nm LD50” value was 4 µM (≈ 7.61 µg/mL) and the “MIC at 600 nm LD90” value worked out at 8 µM (≈ 15.2 µg/mL). Moreover, in the experiment on P. aeruginosa PAO1 [9] (PAO1), the “MBIC (CV at 595 nm) LD50” value amounted to 4 µmol/L and the “MBRC (CV at 595 nm) LD50” value turned out to be 32 µmol/L. Besides, the “MBIC (CV at 595 nm) LD90” value in the experiment with P. aeruginosa PAO1 [9] (setting [11]) is 8 µmol/L. Also, the “MBRC (CV at 595 nm) LD90” value in the experiment with P. aeruginosa PAO1 [9] (setting [12]) is 32 µmol/L. Moreover, in the experiment with P. aeruginosa PAO1 [10], the “MBEC from Calgary Biofilm Device (CBD) LD50” value is 16 µmol/L and the “MBEC from Calgary Biofilm Device (CBD) LD90” value amounted to 32 µmol/L.
